We go through 19 compounds from patent US20240228488A1 (TAKEDA PHARMACEUTICAL COMPANY LIMITED, priority 2021, published 2024).

One experiment deals with T1, plasma kallikrein (Homo sapiens, UniProt P03952).
T1 construct: from tissue
The experiment can be described thus: Neat human plasma assay, FXIIa contact pathway-activated, PFR-AMC substrate. Format: biochemical. The note with it: citrated human plasma 78% final, 10 nM human FXIIa, 100 μM PFR-AMC; read-out: Human Plasma Assay: IC90. In a few lines:
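Compound inhibition of plasma kallikrein measured as PFR-AMC (100 μM) cleavage rate over 5 min at room temperature in 78% citrated human plasma activated with 10 nM FXIIa (Tris pH 7.5 buffer). IC50/IC90 from 4-parameter fit of rate versus inhibitor concentration.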

Experiment [1] concerns the target human activated kallikrein enzyme (Homo sapiens, UniProt P03952). The experiment can be described thus: Plasma kallikrein inhibition, fluorogenic PFR-AMC substrate, 500 pM activated kallikrein format. The format is biochemical. The following applies: 500 pM activated kallikrein, 300 uM PFR-AMC, 30 min preincubation, 10 min reaction; read-out: Primary Dose Response Assay: Average EC50. A digest of the protocol: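 Fluorescence (ex 380/em 460 nm) is read after 10 min of 300 uM PFR-AMC turnover by 500 pM enzyme at RT. Compounds sit with enzyme for 30 min beforehand. Buffer is Tris (pH 7.5) with EDTA, NaCl, PEG-400 and Triton X-100; EC50 values are banded.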

T1 sequence (P03952 391-638 limits assumed): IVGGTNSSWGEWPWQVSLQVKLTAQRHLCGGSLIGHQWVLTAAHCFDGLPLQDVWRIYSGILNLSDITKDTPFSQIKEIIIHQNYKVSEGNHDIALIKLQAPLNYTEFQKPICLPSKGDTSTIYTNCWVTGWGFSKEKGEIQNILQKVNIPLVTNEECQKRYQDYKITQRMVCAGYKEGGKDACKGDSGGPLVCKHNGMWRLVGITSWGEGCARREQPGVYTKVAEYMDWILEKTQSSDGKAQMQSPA
T1 sequence (P03952 20-390 partner limits assumed): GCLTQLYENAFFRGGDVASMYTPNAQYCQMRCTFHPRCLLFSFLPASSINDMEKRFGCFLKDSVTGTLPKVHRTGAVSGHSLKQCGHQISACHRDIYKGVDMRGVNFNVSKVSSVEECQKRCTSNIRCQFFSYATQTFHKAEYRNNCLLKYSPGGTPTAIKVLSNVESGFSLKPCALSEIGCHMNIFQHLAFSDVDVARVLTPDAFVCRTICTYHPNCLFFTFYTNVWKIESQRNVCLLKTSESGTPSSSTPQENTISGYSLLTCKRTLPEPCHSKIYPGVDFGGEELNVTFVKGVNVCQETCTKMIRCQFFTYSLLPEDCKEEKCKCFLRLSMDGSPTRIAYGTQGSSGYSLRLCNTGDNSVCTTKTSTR
Chain of human activated kallikrein enzyme (P03952 391-638 limits assumed): as the sequence (P03952 391-638 limits assumed) above
Chain of human activated kallikrein enzyme (P03952 20-390 partner limits assumed): as the sequence (P03952 20-390 partner limits assumed) above

On to `Cc1ccnc([C@H]2C[C@@H]2C(=O)Nc2cc(N[C@H](C)c3cn4cc(C5CC5)cc(N5CCOC5=O)c4n3)ncn2)n1` [Example 534, (1S,2S)-N-(6-(((R)-1-(6-cyclopropyl-8-(2-oxooxazolidin-3-yl)imidazo[1,2-a]pyridin-2-yl)ethyl)amino)pyrimidin-4-yl)-2-(4-methylpyrimidin-2-yl)cyclopropane-1-carboxamide], for which, on plasma kallikrein, the IC90 – broadly, the concentration at which the effect reaches the 90% level – was less than 400 nM. The EC50 (usually the concentration giving half of the maximal effect) in experiment [1] is less than 1 nM.

As to `Cc1ccnc([C@H]2C[C@@H]2C(=O)Nc2cc(OC(C)c3cn4cc(C5CC5)cc(N5CC(=O)N(C)C5=O)c4n3)ncn2)n1` (stereo partly drawn) [Example 549, (1S,2S)—N-(6-(1-(6-cyclopropyl-8-(3-methyl-2,4-dioxoimidazolidin-1-yl)imidazo[1,2-a]pyridin-2-yl)ethoxy)pyrimidin-4-yl)-2-(4-methylpyrimidin-2-yl)cyclopropane-1-carboxamide], the IC90 on plasma kallikrein lay within 400 to 1500 nM. For the same compound, the EC50 in experiment [1] was less than 1 nM.

In the case of `COC(=O)CN1C(=O)CN(c2cc(C3CC3)cn3cc(COc4cc(NC(=O)[C@H]5C[C@@H]5c5nccc(C)n5)nc(C)n4)nc23)C1=O` [Example 550, methyl 2-(3-(6-cyclopropyl-2-(((2-methyl-6-((1S,2S)-2-(4-methylpyrimidin-2-yl)cyclopropane-1-carboxamido)pyrimidin-4-yl)oxy)methyl)imidazo[1,2-a]pyridin-8-yl)-2,5-dioxoimidazolidin-1-yl)acetate], at plasma kallikrein, the 90% effect concentration (IC90) was in the range of 400 to 1500 nM. In addition, the EC50 in experiment [1] is less than 1 nM.

`COCc1nc(NC(=O)[C@H]2C[C@@H]2c2nccc(C)n2)cc(OCc2cn3cc(C4CC4)cc(N4CC(=O)N(C)C4=O)c3n2)n1` [Example 551, (1S,2S)-N-(6-((6-cyclopropyl-8-(3-methyl-2,4-dioxoimidazolidin-1-yl)imidazo[1,2-a]pyridin-2-yl)methoxy)-2-(methoxymethyl)pyrimidin-4-yl)-2-(4-methylpyrimidin-2-yl)cyclopropane-1-carboxamide]: on plasma kallikrein, the IC90 lay within 400 to 1500 nM. Further, the EC50 in experiment [1] is less than 1 nM.

For `Cc1ccnc([C@H]2C[C@@H]2C(=O)Nc2cc(OC(C)c3cn4cc(C5CC5)cc(N5CC(=O)N(C)C5=O)c4n3)nc(C)n2)n1` (stereo partly drawn) [Example 552, (1S,2S)-N-(6-(1-(6-cyclopropyl-8-(3-methyl-2,4-dioxoimidazolidin-1-yl)imidazo[1,2-a]pyridin-2-yl)ethoxy)-2-methylpyrimidin-4-yl)-2-(4-methylpyrimidin-2-yl)cyclopropane-1-carboxamide], the IC90 at plasma kallikrein fell in the range of 1500 to 10000 nM. Moreover, the EC50 in experiment [1] was less than 1 nM.

As for `Cc1ccnc([C@H]2C[C@@H]2C(=O)Nc2cc(OCc3cn4cc(C5CC5)cc(N5CC6(COC6)OC5=O)c4n3)nc(C)n2)n1` [Example 553, (1S,2S)-N-(6-((6-cyclopropyl-8-(6-oxo-2,5-dioxa-7-azaspiro[3.4]octan-7-yl)imidazo[1,2-a]pyridin-2-yl)methoxy)-2-methylpyrimidin-4-yl)-2-(4-methylpyrimidin-2-yl)cyclopropane-1-carboxamide], the IC90 on plasma kallikrein was less than 400 nM. Also, in experiment [1], the EC50 is less than 1 nM.

As for `Cc1ccnc([C@H]2C[C@@H]2C(=O)Nc2cc(OCc3cn4cc(C5CC5)cc(N5CC(=O)N(C)C5=O)c4n3)nc(C)n2)n1` [Example 555, (1S,2S)-N-(6-((6-cyclopropyl-8-(3-methyl-2,4-dioxoimidazolidin-1-yl)imidazo[1,2-a]pyridin-2-yl)methoxy)-2-methylpyrimidin-4-yl)-2-(4-methylpyrimidin-2-yl)cyclopropane-1-carboxamide], on plasma kallikrein, the IC90 was in the range of 400 to 1500 nM. Further, in experiment [1], the EC50 was less than 1 nM.

Regarding `COc1nc(NC(=O)[C@H]2C[C@@H]2c2nccc(C)n2)cc(OCc2cn3cc(C4CC4)cc(N4CC(=O)N(C)C4=O)c3n2)n1` [Example 556, (1S,2S)-N-(6-((6-cyclopropyl-8-(3-methyl-2,4-dioxoimidazolidin-1-yl)imidazo[1,2-a]pyridin-2-yl)methoxy)-2-methoxypyrimidin-4-yl)-2-(4-methylpyrimidin-2-yl)cyclopropane-1-carboxamide], on plasma kallikrein, the 90% effect concentration (IC90) was in the range of 400 to 1500 nM. Also, the EC50 in experiment [1] was less than 1 nM.

For the compound `CN1C(=O)CN(c2cc(C3CC3)cn3cc(COc4cnnc(NC(=O)[C@H]5C[C@@H]5c5cccc(Cl)c5)c4)nc23)C1=O` [Example 557, (1S,2S)-2-(3-chlorophenyl)-N-(5-((6-cyclopropyl-8-(3-methyl-2,4-dioxoimidazolidin-1-yl)imidazo[1,2-a]pyridin-2-yl)methoxy)pyridazin-3-yl)cyclopropane-1-carboxamide], the IC90 on plasma kallikrein was in the range of 400 to 1500 nM. The EC50 in experiment [1] was less than 1 nM.

In the case of `Cc1ccnc([C@H]2C[C@@H]2C(=O)Nc2cc(OCc3cn4cc(C5CC5)cc(N5CC(=O)N(C)C5=O)c4n3)cnn2)n1` [Example 558, (1S,2S)-N-(5-((6-cyclopropyl-8-(3-methyl-2,4-dioxoimidazolidin-1-yl)imidazo[1,2-a]pyridin-2-yl)methoxy)pyridazin-3-yl)-2-(4-methylpyrimidin-2-yl)cyclopropane-1-carboxamide], the IC90 at plasma kallikrein was less than 400 nM. Further, the EC50 in experiment [1] was less than 1 nM.

On to `Cc1ccnc([C@H]2C[C@@H]2C(=O)Nc2cc(OCc3cn4cc(C5CC5)cc(N5CC(=O)N(C)C5=O)c4n3)c(C)nn2)n1` [Example 560, (1S,2S)-N-(5-((6-cyclopropyl-8-(3-methyl-2,4-dioxoimidazolidin-1-yl)imidazo[1,2-a]pyridin-2-yl)methoxy)-6-methylpyridazin-3-yl)-2-(4-methylpyrimidin-2-yl)cyclopropane-1-carboxamide], for which the IC90 at plasma kallikrein was less than 400 nM. Also, the EC50 in experiment [1] is less than 1 nM.

Take `Cc1ccnc([C@H]2C[C@@H]2C(=O)Nc2cc(OCc3cn4cc(C5CC5)cc(S(C)(=O)=O)c4n3)cnn2)n1` [Example 561, (1S,2S)-N-(5-((6-cyclopropyl-8-(methylsulfonyl)imidazo[1,2-a]pyridin-2-yl)methoxy)pyridazin-3-yl)-2-(4-methylpyrimidin-2-yl)cyclopropane-1-carboxamide]: at plasma kallikrein, the IC90 was less than 400 nM. Also, in experiment [1], the EC50 was less than 1 nM.

`Cc1ccnc([C@H]2C[C@@H]2C(=O)Nc2cc(OCc3cn4cc(C5CC5)cc(N5CC(=O)N(CC(C)(C)O)C5=O)c4n3)nc(C)n2)n1` [Example 562, (1S,2S)—N-(6-((6-cyclopropyl-8-(3-(2-hydroxy-2-methylpropyl)-2,4-dioxoimidazolidin-1-yl)imidazo[1,2-a]pyridin-2-yl)methoxy)-2-methylpyrimidin-4-yl)-2-(4-methylpyrimidin-2-yl)cyclopropane-1-carboxamide]: the IC90 on plasma kallikrein was 400 to 1500 nM. In addition, the EC50 in experiment [1] is less than 1 nM.

`Cc1ccnc([C@H]2C[C@@H]2C(=O)Nc2cc(OCc3cn4cc(C5CC5)cc(N5CC(=O)N(C)C5=O)c4n3)nc(OCCN(C)C)n2)n1` [Example 563, (1S,2S)—N-(6-((6-cyclopropyl-8-(3-methyl-2,4-dioxoimidazolidin-1-yl)imidazo[1,2-a]pyridin-2-yl)methoxy)-2-(2-(dimethylamino)ethoxy)pyrimidin-4-yl)-2-(4-methylpyrimidin-2-yl)cyclopropane-1-carboxamide]: the IC90 at plasma kallikrein is less than 400 nM. In addition, the EC50 in experiment [1] is less than 1 nM.

For `Cc1ccnc([C@H]2C[C@@H]2C(=O)Nc2cc(OCc3cn4cc(C5CC5)cc(N5CC(=O)N(CCN(C)C)C5=O)c4n3)nc(C)n2)n1` [Example 564, (1S,2S)-N-(6-((6-cyclopropyl-8-(3-(2-(dimethylamino)ethyl)-2,4-dioxoimidazolidin-1-yl)imidazo[1,2-a]pyridin-2-yl)methoxy)-2-methylpyrimidin-4-yl)-2-(4-methylpyrimidin-2-yl)cyclopropane-1-carboxamide], the IC90 at plasma kallikrein is less than 400 nM. Moreover, in experiment [1], the EC50 is less than 1 nM.

Take `CN1CCN(c2cc(C3CC3)cn3cc(COc4ccnc(NC(=O)[C@H]5C[C@@H]5c5cccc(Cl)c5)c4)nc23)CC1` [Example 565, (1S,2S)-2-(3-chlorophenyl)-N-(4-((6-cyclopropyl-8-(4-methylpiperazin-1-yl)imidazo[1,2-a]pyridin-2-yl)methoxy)pyridin-2-yl)cyclopropane-1-carboxamide]: the IC90 on plasma kallikrein lay in the range of 1500 to 10000 nM. Also, in experiment [1], the EC50 lay in the range of 1 to 10 nM.

In the case of `Cc1ccnc([C@H]2C[C@@H]2C(=O)Nc2cc(OCc3cn4cc(C5CC5)ccc4n3)cnn2)n1` [Example 568, (1S,2S)-N-(5-((6-cyclopropylimidazo[1,2-a]pyridin-2-yl)methoxy)pyridazin-3-yl)-2-(4-methylpyrimidin-2-yl)cyclopropane-1-carboxamide], the IC90 on plasma kallikrein was 1500 to 10000 nM. The EC50 in experiment [1] is less than 1 nM.

On to `Cc1ccnc([C@H]2C[C@@H]2C(=O)Nc2nc(C)nc(OCc3cn4cc(C5CC5)cc(N5CC(=O)N(C)C5=O)c4n3)n2)n1` [Example 573, (1S,2S)—N-(4-((6-cyclopropyl-8-(3-methyl-2,4-dioxoimidazolidin-1-yl)imidazo[1,2-a]pyridin-2-yl)methoxy)-6-methyl-1,3,5-triazin-2-yl)-2-(4-methylpyrimidin-2-yl)cyclopropane-1-carboxamide], for which, on plasma kallikrein, the 90% effect concentration (IC90) is 400 to 1500 nM. In addition, in experiment [1], the EC50 was less than 1 nM.

Regarding `CNCc1cc(C2CC2)cn2cc(CNc3ccnc(NC(=O)[C@H]4C[C@@H]4c4cccc(Cl)c4)c3)nc12` [Example 595, (1S,2S)-2-(3-chlorophenyl)-N-(4-(((6-cyclopropyl-8-((methylamino)methyl)imidazo[1,2-a]pyridin-2-yl)methyl)amino)pyridin-2-yl)cyclopropane-1-carboxamide], at plasma kallikrein, the IC90 is less than 400 nM. For the same compound, the EC50 in experiment [1] is less than 1 nM.
